From ChEMBL document CHEMBL1201862, “PubChem BioAssay data set” (2004)
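Interpolation was linear, between the two tested concentrations surrounding the appropriate level; five concentrations were tested over 48 hours in 96-well plates. At the GI50, growth is halved.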 The source made the active and inactive calls. No stated cut-off is given here; in the data, active = GI50 up to about 1.1 µM and inactive = higher.

Columns and labels:
Assay in all cases: NCI-60 cell line screen, 48 h
[1] = system: SK-OV-3
[2] = system: RXF 393
[3] = system: HCT-116
[4] = system: DLD-1
[5] = system: OVCAR-3
[6] = system: CCRF-CEM
[7] = system: MOLT-4
[8] = system: UACC-257
[9] = system: SNB-19
[10] = system: K562
[11] = system: RPMI-8226
[12] = system: U-251
[13] = system: EKVX
[14] = system: IGROV-1
[15] = system: SK-MEL-5
[16] = system: M14
[17] = system: HOP-92
[18] = system: OVCAR-4
[19] = system: Malme-3M
[20] = system: TK-10
[21] = system: SW-620
[22] = system: XF498
[23] = system: HOP-62
[24] = system: SN12C
[25] = system: HOP-18
[26] = system: UO-31
[27] = system: SNB-75
[28] = system: 786-0
[29] = system: SK-MEL-2
[30] = system: NCI-H460
[31] = system: HCT-15
[32] = system: SK-MEL-28
[33] = system: COLO 205
[34] = system: A549
[35] = system: ACHN
[36] = system: NCI-H23
[37] = system: UACC-62
[38] = system: M19-MEL
[39] = system: OVCAR-8
[40] = system: LOX IMVI
[41] = system: HL-60
[42] = system: HT-29
[43] = system: DMS-273
[44] = system: KM-20L2
[45] = system: SF-295
[46] = system: DMS-114
[47] = system: SNB-78
[48] = system: CAKI-1
[49] = system: SF-268
[50] = system: LXFL 529
[51] = system: SF-539
[52] = system: SR
[53] = system: HCC 2998
[54] = system: OVCAR-5
[55] = system: NCI-H522
[56] = system: NCI-H226
[57] = system: KM12
[58] = system: A498

Measured: GI50

CC(=O)C1C(c2ccc(N(C)C)cc2)c2cc3c(cc2OC1(C)O)OCO3 (configuration not stated)
41.3 µM: [31]
inactive: [1] 55.3 µM | [2] 33.3 µM | [3] 39.8 µM | [4] 59.3 µM | [5] 35 µM | [6] 32.5 µM | [7] 32.1 µM | [8] 51.8 µM | [9] 75.7 µM | [10] 24 µM | [11] 26.7 µM | [12] 52.7 µM | [13] 77.6 µM | [14] 77.8 µM | [15] 30.8 µM | [16] 43.8 µM | [17] 8.32 µM | [18] 33.7 µM | [19] 53 µM | [20] 51.2 µM | [21] 40.2 µM | [22] 34 µM | [23] > 100 µM | [24] 40.1 µM | [25] 68.9 µM | [26] 29.4 µM | [27] 24.7 µM | [28] 36.7 µM | [29] 33.3 µM | [30] 34.4 µM | [32] 57.4 µM | [33] 41.1 µM | [34] 37.6 µM | [35] 41.2 µM | [36] 59 µM | [37] 32.9 µM | [38] 45.2 µM | [39] 73.5 µM | [40] 42.1 µM | [41] 24.3 µM | [42] 23.2 µM | [43] 29.4 µM | [44] 6.85 µM | [45] 28.7 µM | [46] 33.3 µM | [47] 56 µM | [48] 20.5 µM

COc1c(C)c2c(c(C)c1Cl)Oc1c(C=O)c(O)c(Cl)c(C)c1C(=O)O2
inactive: [49] 27.8 µM | [50] 28.1 µM | [1] 33.2 µM | [51] 18.5 µM | [3] 23 µM | [4] 27.7 µM | [5] 11.7 µM | [6] 20.3 µM | [7] 20.6 µM | [8] 31.4 µM | [10] 26.8 µM | [52] 27.5 µM | [53] 28.1 µM | [11] 32.6 µM | [12] 20.3 µM | [13] 17.9 µM | [54] 28.1 µM | [14] 31.6 µM | [55] 22.7 µM | [15] 95.7 µM | [16] 20.9 µM | [19] 23.2 µM | [20] 31.8 µM | [21] 43.8 µM | [22] 2.66 µM | [23] 24.3 µM | [56] 28.7 µM | [24] 33.3 µM | [57] 31.8 µM | [27] 23.4 µM | [28] 31 µM | [30] 32.3 µM | [33] 22.8 µM | [58] 24.2 µM | [34] 33.7 µM | [35] 22.4 µM | [36] 21.1 µM | [37] 21.6 µM | [38] 31.3 µM | [39] 36.7 µM | [40] 25.9 µM | [41] 22.3 µM | [42] 36.9 µM | [43] 22.4 µM | [44] 30.5 µM | [45] 30.9 µM | [46] 23.3 µM | [47] 18.2 µM | [48] 40.7 µM
